Reference: ChEMBL document CHEMBL1201862, “PubChem BioAssay data set” (2004)
Values belong to the molecule of their own block, whether it stands above or below them. Calls of active or inactive are those of the source.

Tests used:
[1] = target: T1, Nucleotide-binding oligomerization domain-containing protein 2 (Homo sapiens, UniProt Q9HC29); experiment: inhibition of NOD2 signaling – set 2, SAR follow-up (AID 2475); format: functional
HEK293 [2] = experiment: NOD2 signaling inhibitors in MDP-stimulated cells, cell-based, uHTS, luminescence (AID 2001); format: functional; details: Homo sapiens
HEK293 [3] = experiment: cells; format: functional, cell-based; details: Homo sapiens
HEK293 [4] = experiment: cells; format: functional, cell-based; details: Homo sapiens; remark: listed apart in the source
Tumor necrosis factor [5] = target: T2, Tumor necrosis factor (Homo sapiens, UniProt P01375); experiment: analog potency on TNFa NF-kB signaling – cell-based, revised, SAR follow-up (AID 2337); format: functional
HEK293 [6] = experiment: SAR analysis of compounds that are cytotoxic to HEK293 - Set 2. [Related pubchem assays (depositor defined):AID1575, AID1578, AID1849, AID2001, AID2333, AID2334, AID2335, AID2337, AID2800]; format: functional, cell-based; details: Homo sapiens
[7] = target: T1, Nucleotide-binding oligomerization domain-containing protein 2; experiment: inhibition of NOD2-driven NF-kB reporter – cell-based, luminescence, uHTS, HEK293 (AID 1566); format: functional
HEK293 [8] = experiment: inhibition of NOD1-driven NF-kB reporter – cell-based, luminescence, uHTS, primary screen (AID 1578); format: functional; details: Homo sapiens
Tumor necrosis factor [9] = target: T2, Tumor necrosis factor; experiment: analog potency on TNFa NF-kB signaling – cell-based, set 2, SAR follow-up (AID 2483); format: functional
HEK293 [10] = experiment: cells; details: Homo sapiens
[11] = target: T3, Nucleotide-binding oligomerization domain-containing protein 1 (Homo sapiens, UniProt Q9Y239); experiment: SAR analysis of compounds that inhibit NOD1 - Set 2. [Related pubchem assays (depositor defined):AID1566, AID1575, AID1578, AID1849, AID1852, AID2333, AID2335, AID2798]; format: functional
T3 sequence (Q9Y239 whole entry): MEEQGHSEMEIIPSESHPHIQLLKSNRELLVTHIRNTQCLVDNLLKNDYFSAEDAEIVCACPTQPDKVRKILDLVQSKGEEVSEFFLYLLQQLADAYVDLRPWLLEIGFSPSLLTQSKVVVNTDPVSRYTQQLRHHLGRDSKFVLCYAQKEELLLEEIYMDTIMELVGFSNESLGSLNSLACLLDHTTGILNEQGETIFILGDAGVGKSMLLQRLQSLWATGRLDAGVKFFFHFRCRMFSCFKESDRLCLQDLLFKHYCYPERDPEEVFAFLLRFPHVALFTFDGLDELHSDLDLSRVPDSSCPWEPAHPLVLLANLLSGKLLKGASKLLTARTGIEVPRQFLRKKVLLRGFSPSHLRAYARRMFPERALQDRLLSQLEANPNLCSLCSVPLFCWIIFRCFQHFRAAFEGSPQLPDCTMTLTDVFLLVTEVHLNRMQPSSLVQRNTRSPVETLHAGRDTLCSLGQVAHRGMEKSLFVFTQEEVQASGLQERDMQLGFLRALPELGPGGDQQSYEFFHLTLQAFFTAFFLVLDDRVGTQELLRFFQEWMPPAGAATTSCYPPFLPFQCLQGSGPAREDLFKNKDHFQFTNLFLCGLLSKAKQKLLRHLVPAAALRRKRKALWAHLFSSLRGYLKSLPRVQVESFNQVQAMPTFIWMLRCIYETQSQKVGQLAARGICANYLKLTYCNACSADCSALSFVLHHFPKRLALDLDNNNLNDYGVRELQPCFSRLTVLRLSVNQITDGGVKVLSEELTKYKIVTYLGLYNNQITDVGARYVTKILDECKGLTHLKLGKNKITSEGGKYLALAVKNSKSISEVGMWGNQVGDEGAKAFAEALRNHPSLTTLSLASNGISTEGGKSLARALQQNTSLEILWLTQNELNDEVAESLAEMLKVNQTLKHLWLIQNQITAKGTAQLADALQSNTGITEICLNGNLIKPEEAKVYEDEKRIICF

HEK293 [12] = experiment: cells; format: functional, cell-based; details: Homo sapiens; remark: listed apart in the source
[13] = target: T1, Nucleotide-binding oligomerization domain-containing protein 2; experiment: PubChem AID 2334; format: functional
[14] = target: T3, Nucleotide-binding oligomerization domain-containing protein 1; experiment: blockers of NOD1 pathway activity – revised, SAR follow-up (AID 2333); format: functional
[15] = target: T4, Rac GTPase-activating protein 1 (Homo sapiens, UniProt Q9H0H5); experiment: blockers of MgcRacGAP-driven Rac1 GTP hydrolysis – biochemical, ADP Hunter fluorescence, primary and confirmatory, confirmation (AID 624330); format: functional
T4 sequence (Q9H0H5 whole entry): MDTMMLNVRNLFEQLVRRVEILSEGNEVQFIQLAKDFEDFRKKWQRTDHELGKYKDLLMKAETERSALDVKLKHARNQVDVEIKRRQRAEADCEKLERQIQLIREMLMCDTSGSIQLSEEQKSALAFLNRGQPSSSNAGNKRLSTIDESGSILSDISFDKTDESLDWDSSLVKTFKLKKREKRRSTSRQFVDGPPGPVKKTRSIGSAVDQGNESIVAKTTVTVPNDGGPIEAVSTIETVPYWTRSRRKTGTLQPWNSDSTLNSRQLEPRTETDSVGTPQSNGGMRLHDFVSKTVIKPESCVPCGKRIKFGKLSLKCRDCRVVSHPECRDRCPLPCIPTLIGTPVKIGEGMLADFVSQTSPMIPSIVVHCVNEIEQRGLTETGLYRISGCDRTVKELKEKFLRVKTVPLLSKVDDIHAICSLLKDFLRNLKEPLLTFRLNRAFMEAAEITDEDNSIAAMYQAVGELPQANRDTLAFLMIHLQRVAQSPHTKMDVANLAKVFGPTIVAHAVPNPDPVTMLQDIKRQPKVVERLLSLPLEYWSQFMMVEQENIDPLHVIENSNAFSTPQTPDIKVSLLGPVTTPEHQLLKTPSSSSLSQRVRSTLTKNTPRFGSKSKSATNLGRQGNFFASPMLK

[16] = viability loss in HeLa cells – cytotoxicity control for MgcRacGAP inhibitor project, dose response (AID 624300); format: functional
Troponin, cardiac muscle = Troponin, cardiac muscle (Homo sapiens, UniProt P19429+P45379+P63316); experiment: Fluorescence-based biochemical high throughput dose response assay for activators of the calcium sensitivity of cardiac Regulated Thin Filaments (RTF). [Related pubchem assays (depositor defined):AID493008, AID493018, AID504382, AID504383]; format: protein-complex assay
Mucolipin-3 = target: T5, Mucolipin-3 (Homo sapiens, UniProt Q8TDD5); experiment: Fluorescence counterscreen assay for […] agonists: dose response cell-based high-throughput screening assay to identify agonists of the transient receptor potential channel ML3 (TRPML3). [Related pubchem assays: 1424, 1448 ]; format: functional
T5 sequence (Q8TDD5 whole entry): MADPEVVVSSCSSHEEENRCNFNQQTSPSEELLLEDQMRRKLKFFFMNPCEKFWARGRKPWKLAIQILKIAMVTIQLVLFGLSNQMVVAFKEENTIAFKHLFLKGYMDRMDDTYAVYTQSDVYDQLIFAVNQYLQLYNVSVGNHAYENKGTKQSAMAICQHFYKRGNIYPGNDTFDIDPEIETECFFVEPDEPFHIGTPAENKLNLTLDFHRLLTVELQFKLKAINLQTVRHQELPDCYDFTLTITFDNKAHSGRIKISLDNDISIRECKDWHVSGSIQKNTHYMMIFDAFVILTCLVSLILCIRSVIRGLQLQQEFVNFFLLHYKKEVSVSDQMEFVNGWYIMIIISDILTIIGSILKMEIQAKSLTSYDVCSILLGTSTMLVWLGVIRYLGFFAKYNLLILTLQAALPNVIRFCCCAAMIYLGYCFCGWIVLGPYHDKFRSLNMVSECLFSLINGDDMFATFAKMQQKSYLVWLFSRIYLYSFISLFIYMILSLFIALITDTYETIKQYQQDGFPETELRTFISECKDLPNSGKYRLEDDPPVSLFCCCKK

Ion channel NompC = Ion channel NompC (Danio rerio, UniProt Q7T1G6); experiment: Dose response cell-based high-throughput screening assay for agonists of the transient receptor potential channel N1 (TRPN1). [Related pubchem assays (depositor defined):AID1424, AID1448]; format: functional
[17] = target: Eukaryotic translation initiation factor 4E (Mus musculus, UniProt P63073); experiment: blockers of eIF4G binding by eIF4E – biochemical, TR-FRET, dose response (AID 855); format: functional;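 note: potency for disrupting eIF4E binding to eIF4GI seen as loss of FRET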
[18] = target: T6, Sphingosine 1-phosphate receptor 4 (Homo sapiens, UniProt O95977); experiment: Late-stage fluorescence dose response cell-based assay to identify agonists of the Sphingosine 1-Phosphate Receptor 4 (S1P4): purchased compounds EC50. [Related pubchem assays (depositor defined):AID1509, AID1523, AID1563, AID1686, AID1701, AID1801]; format: functional
T6 sequence (O95977 whole entry): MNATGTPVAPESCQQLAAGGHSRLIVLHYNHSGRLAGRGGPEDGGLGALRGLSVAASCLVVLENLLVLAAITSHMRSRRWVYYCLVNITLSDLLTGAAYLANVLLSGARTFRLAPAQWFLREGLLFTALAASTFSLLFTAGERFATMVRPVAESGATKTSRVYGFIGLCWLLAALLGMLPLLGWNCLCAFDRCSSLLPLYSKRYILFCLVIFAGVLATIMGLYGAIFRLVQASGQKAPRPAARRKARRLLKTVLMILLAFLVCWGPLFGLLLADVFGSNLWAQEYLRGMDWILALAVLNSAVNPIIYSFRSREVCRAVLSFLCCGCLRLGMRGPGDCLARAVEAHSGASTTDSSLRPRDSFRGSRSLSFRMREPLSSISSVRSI

[19] = target: DNA dC->dU-editing enzyme APOBEC-3G (Homo sapiens, UniProt Q9HC16); format: functional;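 note: Dose-response counterscreen measuring inhibition of APOBEC3G DNA deaminase activity, run while confirming APOBEC3A inhibitors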
[20] = target: DNA dC->dU-editing enzyme APOBEC-3A (Homo sapiens, UniProt P31941); experiment: Dose Response confirmation of small molecule APOBEC3A DNA Deaminase Inhibitors via a fluorescence-based single-stranded DNA deaminase assay. [Related pubchem assays (depositor defined):AID493011, AID493024]; format: functional

Compound: Cc1cc(SCC(=O)OC/C(O)=C(\C#N)c2nc3ccccc3[nH]2)c(C)cc1Br
- IC50 [1]: 5.19 µM (active)
- IC50 (HEK293 [2]): 5.41 µM (inactive)
- IC50 (HEK293 [3]): > 20 µM (inactive)
- IC50 (HEK293 [4]): > 20 µM (inactive)
- IC50 (Tumor necrosis factor [5]): > 20 µM (inactive)
- IC50 (HEK293 [6]): > 20 µM (inactive)
- EC50 [7]: > 20 µM (inactive)
- EC50 (HEK293 [8]): > 20 µM (inactive)
- IC50 (Tumor necrosis factor [9]): > 20 µM (inactive)
- IC50 (HEK293 [10]): > 20 µM (inactive)
- IC50 [11]: 5.95 µM (active)
- IC50 (HEK293 [12]): 18.9 µM (active)
- IC50 [13]: > 20 µM (inactive)
- IC50 [14]: > 20 µM (inactive)

- IC50 [15]: 20 µM (active)
- EC50 (Troponin, cardiac muscle): 4.89 µM (active)
- EC50 (Mucolipin-3): 8.88 µM (active)
- EC50 (Ion channel NompC): 3.62 µM (active)
- IC50 [17]: 50 µM (inactive)
Compound: COc1cc(/C=C(\C#N)c2nc3ccccc3[nH]2)cc(OC)c1O
- CC50 [16]: 100 µM (active)

- EC50 [18]: > 50 µM (inactive)
Compound: Cc1ccc(OCc2ccc(Cl)c(Cl)c2)c([N+](=O)[O-])n1

Compound: O=C(CNC(=O)OCc1ccccc1)Nc1ccc(F)cc1
- IC50 [19]: 5.01 µM (active)
- IC50 [20]: 3.04 µM (active)
